Each block holds one compound with its values, some of them ahead of it. Square brackets hold non-standard residues; d marks the D form. Ends that are not written are not given here. Peptide text beside a SMILES is read from it. * marks the point of attachment. MeO(CH2CH2O)23CH2CH2CO = COCCOCCOCCOCCOCCOCCOCCOCCOCCOCCOCCOCCOCCOCCOCCOCCOCCOCCOCCOCCOCCOCCOCCOCCC(=O)*; α‑Lnn = alpha-linolenic acid on Lys, CC/C=C\C/C=C\C/C=C\CCCCCCCC(=O)*; NMeW = CN[C@@H](Cc1c[nH]c2ccccc12)C(=O)O; MPEG24 = PEG24 on Lys (Lys-MPEG_24); Palmitoyl = CCCCCCCCCCCCCCCC(=O)*; MPEG4 = PEG4 on Lys (Lys-MPEG_4); Ahx = NCCCCCC(=O)O; Sar = CNCC(=O)O
Experiments:
[1] = test system: Sprague-Dawley rats; details: rat, in vivo, iv
[2] = test system: mice; assay: formalin test of acute and chronic hyperalgesia in mice; type: in vivo; set-up: AUC Acute: unit not given beside the values; details: mouse formalin test; for AUC Acute / AUC Inflammatory: i.p., licking AUC as percentage of control AUC, mean ± S.E.M., n=8
Description: Gal-93 and other MEGylated analogs were tested using the formalin test of acute and chronic hyperalgesia in mice. The formalin test was performed according to the method described by Tjolsen et al. (Tjolsen A, Berge O G, Hunskaar S, Rosland J H, Hole K. The Formalin Test: An Evaluation of the Method. Pain 53(2), 237; 1992). More specifically, an injection of 0.5% formalin is made into the plantar region of the right hind paw of a mouse. This elicits a distinct behavioral profile in response to the formalin injection characterized by the mouse licking the affected paw. The behavior is characteristically biphasic in nature. For example, immediately following the injection the mouse intensely licks the paw for approximately 5-10 min. This initial behavior is considered phase 1 (acute) and is thought to be mediated primarily by chemical activation of local C-fibers. The acute phase is followed by a brief latent (usually <5 min) period where there is little or no behavioral activity. A more prolonged (about 20 to 30 min) period of licking then ensues which constitutes phase 2 of the response (inflammatory). Prior to the administration of the test drug or vehicle, each mouse undergoes a 15-min conditioning period in one of several 6″ tall plexiglass cages (4″ diameter) that are placed in front of a mirror. It is in these tubes that mice are observed for the licking activity for the duration of the experiment. Following conditioning, the test substance is dosed i.p. after which the mouse is returned to its home tube. At the TPE of the test substance, formalin is injected sub-dermally into the plantar surface of the right hind foot in a volume of 20 μl with a 27 gauge stainless steel needle attached to a Hamilton syringe. The bevel of the needle is placed facing down toward the skin surface.
The cumulative length of licking for each 2-min time period was recorded. An animal receiving the requisite volume of vehicle was alternated with each mouse given the test peptide. Area under the curve (AUC) and subsequent percent of control for drug-treated animal groups (n=8) was determined using the GraphPad Prism Version 3.03. Total AUC was calculated for both the test substance and control groups for both the acute and inflammatory phases. The AUC for individual animals for each phase was also calculated and converted to percentage of total AUC of control. The average and S.E.M. for both the drug treated and control percentages were then calculated and tested for significant differences.

HCT 30 min [1]: 42 ± 2
HCT 60 min [1]: 42 ± 1
Phenylephrine post-treatment response BP max [1]: 161 ± 4
Phenylephrine post-treatment response HR min [1]: 291 ± 26
glucose 30 min [1]: 78 ± 5
glucose 60 min [1]: 73 ± 4
plasma protein 30 min [1]: 6.5 ± 0.4
plasma protein 60 min [1]: 6.8 ± 0.3
temperature 30 min [1]: 37.2 ± 0.2
temperature 60 min [1]: 36.9 ± 0.4
Compound: CC[C@H](C)[C@H](NC(=O)[C@H](Cc1ccc(O)cc1)NC(=O)[C@H](Cc1c[nH]cn1)NC(=O)[C@H](CCCNC(=N)N)NC(=O)[C@H](C)NC(=O)CCCCCNC(=O)[C@H](CCCCNC(=O)CCOCCOCCOCCOCCOCCOCCOCCOCCOCCOCCOCCOCCOCCOCCOCCOCCOCCOCCOCCOCCOCCOCCOCCOC)NC(=O)[C@H](CCCCN)NC(=O)[C@H](CCCCN)NC(=O)[C@H](Cc1ccc(O)cc1)NC(C)=O)C(=O)N[C@@H](CC(N)=O)C(=O)N[C@@H](CC(C)C)C(=O)N[C@H](C(=O)N[C@H](C(=O)N[C@@H](CCCNC(=N)N)C(=O)N[C@@H](CCC(N)=O)C(=O)N[C@@H](CCCNC(=N)N)C(=O)N[C@@H](Cc1ccc(O)cc1)C(N)=O)[C@@H](C)O)[C@@H](C)CC [NPY-B42] (Ac-YKKK(MeO(CH2CH2O)23CH2CH2CO)[Ahx]ARHYINLITRQRY-NH2)
difference from vehicle treated rats in any cardiovascular parameter measured [1]: neither Gal-93 or NPY-B42 showed statistically significant difference from vehicle treated rats

Compound: (N-Methyl-Trp)TLNSAGYLLGPKK(Lys-MPEG4)K-NH2 ([NMeW]TLNSAGYLLGPKKK(MPEG4)K-NH2) [Gal-104]
duration of licking, inflammatory phase ([2]; result in words): significantly reduced

Compound: (Sar)WTLNSAGYLLGPKK(Lys-Pal)K(Lys-MPEG24)-NH2 ([Sar]WTLNSAGYLLGPKKK(Palmitoyl)KK(MPEG24)-NH2) [Gal-81]
AUC Acute [2]: 19.7 ± 7.2
AUC Inflammatory [2]: 2.9 ± 2.2
duration of licking, acute phase ([2]; result in words): significantly reduced
duration of licking, inflammatory phase ([2]; result in words): significantly reduced

Compound: (Sar)WTLNSAGYLLGPKK(Lys-α-Lnn)K(Lys-MPEG24)-NH2 ([Sar]WTLNSAGYLLGPKKK(α‑Lnn)KK(MPEG24)-NH2) [Gal-100]
AUC Acute [2]: 83.08 ± 13.34
AUC Inflammatory [2]: 33.78 ± 3.04
duration of licking, inflammatory phase ([2]; result in words): significantly reduced

Compound: WTLNSAGYLLGPKK(Lys-MPEG4)K-NH2 (WTLNSAGYLLGPKKK(MPEG4)K-NH2) [Gal-103]
AUC Acute [2]: 66.3 ± 14.6
AUC Inflammatory [2]: 75.6 ± 8.9

— patent US10172909B2, “Neuropeptide analogs, compositions, and methods for treating pain” (NeuroAdjuvants, Inc., priority 2010, dated 2019)
